Reference: patent US20240316064A1, “USE OF ESTRETOL AS A TREATMENT FOR ENDOMETRIOSIS” (UNIVERSIDAD BERNANDO O'HIGGINS, priority 2021, published 2024)

Legend:
ERα/ERβ ratio = ERα/ERβ ratio of protein levels in endometriotic cells; type: cell-based; details: versus control and estradiol conditions
ERα = ERα protein levels by Western blot in endometriotic cells; type: cell-based; details: most of the concentrations used
11Z epithelial cells [1] = assay: PARP cleavage rate (apoptosis), Western blot, 11Z cells; type: cell-based; details: 24 h incubation, most estetrol and estradiol concentrations
Procedure: (§1) FIG. 1. […] (A) Western blot analysis against PARP and β-actin after 24 h incubation (B) MTS assay after 24 h incubation (C) Scratch assay. […] The experiments were performed on 2 cell lines, Hs832, endometrial stromal cells and 11Z cells, endometrial epithelium cells.

Hs832 stromal cell line [2] = assay: PARP cleavage rate (apoptosis), Western blot, Hs832 cells; type: cell-based; details: 24 h incubation, almost all estetrol concentrations (except 108M)
Procedure: as §1

Hs832 stromal cell line [3] = assay: MTS cell viability assay, Hs832 cells; type: cell-based; details: 24 h, all estetrol concentrations tested
Procedure: (§2) FIG. 1. Evaluation of apoptosis, cell viability and migration after treatments with E2 and E4 in endometriotic cells. (A) Western blot analysis against PARP and β-actin after 24 h incubation (B) MTS assay after 24 h incubation (C) Scratch assay.
(§3) To assess cell viability, the MTS assay was performed after 24 h.

Hs832 cells = assay: Wound (scratch) migration assay, Hs832 cells; type: cell-based; details: Hs832, estetrol 10^−6, any time point studied
Procedure: as §2

ER β = assay: ERβ protein levels by Western blot in endometriotic cells; type: cell-based
11Z epithelial cells [4] = assay: MTS cell viability assay, 11Z cells; type: cell-based; details: 24 h, all estetrol concentrations tested
Procedure: as §2, §3

11Z cells = assay: Wound (scratch) migration assay, 11Z cells; type: cell-based; details: estetrol 10^−6, any time point studied
Procedure: as §2

PRA = PRA protein levels by Western blot in endometriotic cells
[5] = test system: genes associated with the progesterone signaling pathway; assay: PCR array for progesterone-regulated genes in Hs832 cells; type: cell-based; details: 24 h E4 (10^−6M) then 6h pulse with P4 (10^−7M), versus P4 without pre-treatment; for expression of PTGER2, NF1, MUC1, TWIST1 and SNAI1: change to a lesser extent
Procedure: FIG. 4. PCR Array Analysis for Progesterone-Regulated Genes in Endometrial Cells, Hs832 Cells. The expression of genes regulated by progesterone (P4) is compared, when incubating with P4 without previous treatment or with a 24 hour treatment with Estetrol.
Procedure: Hs832 endometriosis cells were incubated for 24 h with E4 (10^−6M) or vehicle (ethanol) as a control, then both cells received a 6h pulse with P4 (10^−7M) to then extract their messenger RNA in order to evaluate the levels. expression of 24 genes associated with the progesterone signaling pathway.

PRB = PRB protein levels by Western blot in endometriotic cells; type: cell-based

C[C@]12CC[C@@H]3c4ccc(O)cc4CC[C@H]3[C@@H]1[C@@H](O)[C@@H](O)[C@@H]2O [estetrol]
ERα/ERβ ratio (ERα/ERβ ratio; 11Z cells, estetrol 10^−7/10^−6/10^−5M): significantly increases
ERα/ERβ ratio (ERα/ERβ ratio; Hs832 cells, estetrol 10^−9/10^−7M): significantly increases
ERα levels over β-actin (ERα; 11Z, estetrol): robust increase
ERα levels over β-actin (ERα; Hs832, estetrol): robust increase
PARP cleavage rate (apoptosis) (11Z epithelial cells [1]): apoptosis was reduced
PARP cleavage rate (apoptosis) (Hs832 stromal cell line [2]): significant decrease
changes in cell viability compared to controls (MTS) (Hs832 stromal cell line [3]): None of the estetrol concentrations tested showed changes
migration (wound assay) (Hs832 cells): showed no difference from the control
ER protein levels (ER β levels over β-actin, FIG. 2B) (ER β; 11Z, estetrol, most concentrations used): reduced levels
ER protein levels (ER β levels over β-actin, FIG. 2B) (ER β; Hs832, estetrol, all conditions): reduced levels
changes in cell viability compared to controls (MTS) (11Z epithelial cells [4]): None of the estetrol concentrations tested showed changes
migration (wound assay) (11Z cells): showed no difference from the control
PRA protein levels over β-actin (PRA; 11Z, estetrol 10^−9/10^−8M): increase
PRA protein levels over β-actin (PRA; Hs832, estetrol 10^−5M): increase
PRA protein levels over β-actin (PRA; HsS32, estetrol 10^−9/10^−7M): decreased
decrease of expression of FGF12, GCFC2, PWP1, ITGA6, ZEB1, POSTN and FKBP25 [5]: to a lesser extent
expression of NFIX, GNRFI1, ESR1, MEF2D and I HH [5]: stimulating the expression
expression of PRL, SNAI2, RAD54L, HES1, ABCG2, TCF4 [5]: strongly decreasing
expression of PTGER2, NF1, MUC1, TWIST1 and SNAI1 [5]: increase
expression of PTGER2, NF1, MUC1, TWIST1 and SNAI1 ([5]; listed as E4): increases
expression of PRL, SNAI2, RAD54L, HES1, ABCG2, TCF4 ([5]; listed as E4): strongly decreases
PRB protein levels over β-actin (PRB; 11Z cells, estetrol, all concentrations used): more consistent increase
PRB protein levels over β-actin (PRB; HsS32, estetrol 10^−6/10^−5M): more consistent increase
